Series [1] in a line: Apparent pH change with temperature of buffering systems as indicated by phenol red. The series is classed as physicochemical. To be noted: phenol red pH indicator, 50 mM total buffer.
The test system of series [2] is TF-1 cells. Briefly: Effect of cell-affecting agents on activation of TF-1 cells by GM-CSF, extracellular acidification rate (Example 9). The format is cell-based. Conditions: for inhibition at 10 µM: Homo sapiens. How it is done:
The cell effects of beta-Maleimido proprionic acid (NMPA), N-Ethyl maleimide (NEM), Ferricyanide (Fe3 CN)^-3 (i.e. FeCN) and Cupric o-phenanthroline (Cu o-Ph) on the activation of TF-1 cells by GM-CSF was measured by a procedure similar to that used in Example 5. TF-1 cells were starved overnight in media lacking GM-CSF. The cells were washed twice and re-suspended in simple indicator medium at 1×10^6 cells/ml. The simple indicator medium contained one of the following test substances: NMPA, MEM, FeCN or Cu o-Ph at the tested concentration. A control test, which had no cell-affecting agent, was run in parallel. The cells in the simple indicator medium with or without cell-affecting agents were warmed to 37° C. for 20 minutes prior to the addition of recombinant human GM-CSF (obtained from Sandoz/Schering-Plough Corp.) to a final concentration of 0.1 ng/ml, and the extracellular acidification rate was measured by monitoring OD560/OD420 at 37° C. for 45 minutes. Additionally, a set of cells were mock treated with an equal volume of simple indicator medium but without any GM-CSF as a control for GM-CSF activation. The acidification rates were calculated from the slope of log(OD560/OD420) from 20 to 40 minutes after addition of the GM-CSF.
Generally, 0.1 ng/ml of GM-CSF caused a 100-150% increase in extracellular acidification rate. The cell-affecting agents inhibited the response of extracellular acidification to GM-CSF. Thus, these cell-affecting agents are inhibitory cell-affecting agents, while GM-CSF is a stimulatory cell-affecting agent. The measurements were made in duplicate and results are shown below as % inhibition of the response to GM-CSF, relative to control cells which received GM-CSF only.

A further series deals with mammalian cells. Conditions: cited from earlier work.
Series [3] relates to TF-1 cells. Conditions: TF-1 cells in culture; earlier work; cited from earlier work.
Series [4] deals with TF-1 cells. Briefly: Extracellular acidification by TF-1 cells in response to GM-CSF (Example 5). The series is classed as cell-based. As to the method:
The results from using a preferred simple media (shown in Table 2) to monitor extracellular acidification by TF-I cells is shown in FIG. 13. The TF-1 cells and are grown in complete RPMI 1640 medium with 2.0 mM L-glutamine (Catalogue No. 430-1800, GIBCO-BRL, Grand Island, N.Y.) with added […], 50 μM β-mercaptoethanol, 1000 units/liter penicillin and 1.0 mg/liter streptomycin, 10% fetal bovine serum and Ing/ml GM-CSF (human Granulocyte/Macrophage--Colony Stimulating Factor) under 5% CO2 at 37° C.
The cells are maintained at between 5×10^5 cells per ml and 5×10^6 cells per ml. […]
The extracellular acidification measurements were done in a flat-bottom, 96-well polystyrene microplate placed in a THERMOmax™ microplate reader, set to 37° C. […] Extracellular acidification was measured with Automix™ on, and with SOFTMAX® software (Molecular Devices Corporation, Menlo Park, Calif.) and an Apple® Macintosh™ computer were used to kinetically monitor the optical density changes. The ratio of optical density at 560 nanometers/optical density at 420 nanometers, as a function of time, was measured by using the ODλ1 -ODλ2 feature of a THERMOmax™ microplate reader modified to measure ODλ1 /ODλ2 instead of ODλ1 -ODλ2 (as described previously). The log10 of the ratio of optical densities at 560 nanometers/optical density at 420 nanometers was calculated and plotted as a function of time. […]

Read-outs that look alike come from different tables or passages of the source.

On to `O=C(O)CN(CCN(CC(=O)O)CC(=O)O)CC(=O)O` [EDTA, Ethylenedinitrilo-Tetraacetic Acid], for which the “apparent change in pH with change in temperature” value (shortened to “apparent change in pH with change”) in series [1] (equilibrium with CO2 in air) was “less than 1 millipH/°C”.

Turning to `O=S(=O)(O)CCN1CCN(CCO)CC1` [HEPES, N-[2-Hydroxyethyl]piperazine-N'-[2-ethanesulfonic acid]], the “apparent change in pH with change” value in series [1] (equilibrium with CO2 in air) was -3.92 millipH/°C.

`O=S(=O)(O)CCN1CCOCC1` [MES, 2-[N-Morpholino]ethanesulfonic acid]: the “apparent change in pH with change” value in series [1] (equilibrium with CO2 in air) was -4.74 millipH/°C.

`O=S(=O)(O)CCCN1CCOCC1` [MOPS, 3-[N-Morpholino]propanesulfonic acid]: in series [1] (equilibrium with CO2 in air), the “apparent change in pH with change” value was “less than 1 millipH/°C”.

What is called inhibition is the share of the control response that was lost under treatment. Consider `CCN1C(=O)C=CC1=O` [NEM, N-Ethyl maleimide], for which, in the series with TF-1 cells [2] (TF-1, read-out: % Inhibition GM-CSF Response), the inhibition at 10 µM was determined as 98%.

Turning to `O=C(O)CCN1C(=O)C=CC1=O` [NMPA, beta-Maleimido proprionic acid], the “inhibitory effects on GM-CSF activation (in words)” value with TF-1 cells [2] (0.1 ng/ml GM-CSF, extracellular acidification) was “weak in comparison to NEM and Cu o-Ph”. Also, in the series with TF-1 cells [2] (TF-1, 10 μM, 0.1 ng/ml GM-CSF, duplicate, read-out: % Inhibition GM-CSF Response), the inhibition at 10 µM worked out at 3%.

As to `O=S1(=O)OC(c2ccc(O)cc2)(c2ccc(O)cc2)c2ccccc21` [Phenol Red, phenolsulfonephthalein], the “toxicity toward most mammalian cells” value with mammalian cells is recorded as “minimal toxicity”.

`O=S(=O)(O)CCCNC(CO)(CO)CO` [TAPS, 3-{[tris-(hydroxymethyl)-methyl]-amino}-propanesulfonicacid]: the “apparent change in pH with change” value in series [1] (equilibrium with CO2 in air) is -12.07 millipH/°C.

Turning to `NC(CO)(CO)CO` [TRIS, tris[Hydroxymethyl]aminomethane], the results for the “apparent change in pH with change” value in series [1] (equilibrium with CO2 in air) and in series [1] (with 1.0M NaCl added) were -14.93 millipH/°C and -13.36 millipH/°C, respectively.

On to Cupric o-phenanthroline [Cu o-Ph], for which the “% Inhibition GM-CSF Response” value in the series on TF-1 cells [2] (25 μM, 0.1 ng/ml GM-CSF, duplicate) is 43%.

Regarding “GM-CSF: human Granulocyte/Macrophage--Colony Stimulating Factor”, in the series with TF-1 cells [2] (0.1 ng/ml GM-CSF, 37° C.), the “increase in extracellular acidification rate” value is reported as 100-150%. In the series with TF-1 cells [3], the “concentration giving the optimum proliferation rate” value is listed as “approximately 1 ng/ml”. The “saturating levels (no observance of a dose response)” value with TF-1 cells [4] was “greater than 0.05 ng/ml”.

The values above are taken from patent publication US5766875A, “Metabolic monitoring of cells in a microplate reader” (priority 1995, dated 1998).
